Results reported in US12577228B2, “Dihydrocyclopenta-isoquinoline-sulfonamide derivatives compounds” (UCB Biopharma SRL, priority 2019, dated 2026).
Counter-ions that a name gives are not always drawn.

Target: T1, IgE-Tb / soluble IgE receptor FcεRIα with a Y131A mutation (Homo sapiens, UniProt P01854, N146Q/N252Q)
T1 construct: fused on or other part: Terbium chelate (LanthaScreen amine-reactive) on IgE-Fc; Alexa Fluor 488 hydrazide on the oxidised glycans of sFcεRIα; Both are labels and no part of the key
T1 sequence (P01854 104-427 N146Q/N252Q): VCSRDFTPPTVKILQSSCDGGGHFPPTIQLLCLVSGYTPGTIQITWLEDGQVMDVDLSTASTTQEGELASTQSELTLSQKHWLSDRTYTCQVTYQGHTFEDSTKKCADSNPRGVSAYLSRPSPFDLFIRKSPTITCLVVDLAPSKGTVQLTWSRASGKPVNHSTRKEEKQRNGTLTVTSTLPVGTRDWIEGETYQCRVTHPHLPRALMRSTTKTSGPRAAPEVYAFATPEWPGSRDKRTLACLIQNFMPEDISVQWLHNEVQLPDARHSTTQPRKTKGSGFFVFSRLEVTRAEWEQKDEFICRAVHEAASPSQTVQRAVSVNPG
T1 sequence (P12319 26-201 Y156A partner): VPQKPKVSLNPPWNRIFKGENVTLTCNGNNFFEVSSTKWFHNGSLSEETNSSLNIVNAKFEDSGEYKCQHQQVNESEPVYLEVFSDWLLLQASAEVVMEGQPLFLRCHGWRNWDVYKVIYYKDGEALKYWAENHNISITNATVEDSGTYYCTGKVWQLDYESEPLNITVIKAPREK
Test: in vitro FRET assay: binding of IgE-Tb to receptor FcεRIα-Y131A-AF488 and its inhibition by compounds
Settings: 5 nM IgE-Tb, 25 nM FcεRIα-Y131A-AF488, 2 hours at room temperature; read-out: FRET IC50 range

SMILES	IC50
CC(C)(F)CNS(=O)(=O)c1c2c(cc3cnc(C4CC4)cc13)CC(c1nc3ccncc3[nH]1)C2 (stereo not drawn) [Example 56, 3-cyclopropyl-N-(2-fluoro-2-methylpropyl)-7-(3H-imidazo[4,5-c]pyridin-2-yl)-7,8-dihydro-6H-cyclopenta[g]isoquinoline-5-sulfonamide]	50 to 100 nM
Cn1nnc(-c2ccc(NC3Cc4cc5cnc(C6CC6)cc5c(S(=O)(=O)NCC5(F)COC5)c4C3)cn2)n1 (stereo not drawn) [Example 13, 3-cyclopropyl-N-[(3-fluorooxetan-3-yl)methyl]-7-[[6-(2-methyltetrazol-5-yl)pyridin-3-yl]amino]-7,8-dihydro-6H-cyclopenta[g]isoquinoline-5-sulfonamide]	10 to 50 nM
Cc1noc(-c2ccc(N[C@@H]3Cc4cc5cnc(C6CC6)cc5c(S(=O)(=O)NCC(C)(C)F)c4C3)cn2)n1 [Example 36, (7R)-3-cyclopropyl-N-(2-fluoro-2-methylpropyl)-7-[[6-(3-methyl-1,2,4-oxadiazol-5-yl)pyridin-3-yl]amino]-7,8-dihydro-6H-cyclopenta[g]isoquinoline-5-sulfonamide]	1 to 10 nM
CCOC(=O)c1nnc(N[C@@H]2Cc3cc4cnc(C5CC5)cc4c(S(=O)(=O)NCC(C)(C)F)c3C2)s1 [Example 64, ethyl 5-[[(7R)-3-cyclopropyl-5-[(2-fluoro-2-methylpropyl)sulfamoyl]-7,8-dihydro-6H-cyclopenta[g]isoquinolin-7-yl]amino]-1,3,4-thiadiazole-2-carboxylate]	10 to 50 nM
C[S+]([O-])c1ccc(NC2Cc3cc4cnc(C5CC5)cc4c(S(=O)(=O)NCC(C)(C)F)c3C2)cn1 (stereo not drawn) [Example 139, 3-cyclopropyl-N-(2-fluoro-2-methylpropyl)-7-[(6-methylsulfinylpyridin-3-yl)amino]-7,8-dihydro-6H-cyclopenta[g]isoquinoline-5-sulfonamide]	10 to 50 nM
CCNC(=O)CN1Cc2cc3cnc(C4CC4)cc3c(S(=O)(=O)NCC(C)C)c2C1 [Example 59, 2-[7-cyclopropyl-9-(2-methylpropylsulfamoyl)-1,3-dihydropyrrolo[3,4-g]isoquinolin-2-yl]-N-ethylacetamide]	100 to 2000 nM
Cc1cc(Nc2nncn2C2Cc3cc4cnc(C5CC5)cc4c(S(=O)(=O)NCC(C)(C)F)c3C2)n(C)n1 (stereo not drawn) [Example 57, 3-cyclopropyl-7-[3-[(2,5-dimethylpyrazol-3-yl)amino]-1,2,4-triazol-4-yl]-N-(2-fluoro-2-methylpropyl)-7,8-dihydro-6H-cyclopenta[g]isoquinoline-5-sulfonamide]	100 to 2000 nM
Cn1nnc(-c2ccc(N[C@@H]3Cc4cc5cnc(C6CC6)cc5c(S(=O)(=O)NC5CC(F)C5)c4C3)cn2)n1 (stereo partly drawn) [Example 1, (7R)-3-cyclopropyl-N-(3-fluorocyclobutyl)-7-[[6-(2-methyltetrazol-5-yl)pyridin-3-yl]amino]-7,8-dihydro-6H-cyclopenta[g]isoquinoline-5-sulfonamide]	1 to 10 nM
CC(C)(F)CNS(=O)(=O)c1c2c(cc3cnc(C4CC4)cc13)C[C@@H](Nc1ccc(C(=O)O)nc1)C2 [Example 15, 5-[[(7R)-3-cyclopropyl-5-[(2-fluoro-2-methylpropyl)sulfamoyl]-7,8-dihydro-6H-cyclopenta[g]isoquinolin-7-yl]amino]pyridine-2-carboxylic acid]	10 to 50 nM
CC(C)(F)CNS(=O)(=O)c1c2c(cc3cnc(C4CC4)cc13)CC(Nc1cncc(S(C)(=O)=O)c1)C2 (stereo not drawn) [Example 123, 3-cyclopropyl-N-(2-fluoro-2-methylpropyl)-7-[(5-methylsulfonylpyridin-3-yl)amino]-7,8-dihydro-6H-cyclopenta[g]isoquinoline-5-sulfonamide]	10 to 50 nM
CC(C)(F)CNS(=O)(=O)c1c2c(cc3cnc(C4CC4)cc13)C[C@@H](Nc1cnc(-c3nnn[nH]3)nc1)C2 [Example 124, (7R)-3-cyclopropyl-N-(2-fluoro-2-methylpropyl)-7-[[2-(1H-tetrazol-5-yl)pyrimidin-5-yl]amino]-7,8-dihydro-6H-cyclopenta[g]isoquinoline-5-sulfonamide]	10 to 50 nM
Cc1nnc(NC2Cc3cc4cnc(C5CC5)cc4c(S(=O)(=O)NCC(C)(C)F)c3C2)o1 (stereo not drawn) [Example 97, 3-cyclopropyl-N-(2-fluoro-2-methylpropyl)-7-[(5-methyl-1,3,4-oxadiazol-2-yl)amino]-7,8-dihydro-6H-cyclopenta[g]isoquinoline-5-sulfonamide]	100 to 2000 nM
Cn1nc(O)cc1NC1Cc2cc3cnc(C4CC4)cc3c(S(=O)(=O)NCC(C)(C)F)c2C1 (stereo not drawn) [Example 112, 3-cyclopropyl-N-(2-fluoro-2-methylpropyl)-7-[(5-hydroxy-2-methylpyrazol-3-yl)amino]-7,8-dihydro-6H-cyclopenta[g]isoquinoline-5-sulfonamide]	100 to 2000 nM
CC(C)(F)CNS(=O)(=O)c1c2c(cc3cnc(C4CC4)cc13)C[C@@H](Nc1ccc(C(F)F)nc1)C2 [Example 118, (7R)-3-cyclopropyl-7-[[6-(difluoromethyl)pyridin-3-yl]amino]-N-(2-fluoro-2-methylpropyl)-7,8-dihydro-6H-cyclopenta[g]isoquinoline-5-sulfonamide]	10 to 50 nM
CC(C)(F)CNS(=O)(=O)c1c2c(cc3cnc(C4CC4)cc13)C[C@@H](NC(=O)c1nccc3ccccc13)C2 [Example 135, N-[(7R)-3-cyclopropyl-5-[(2-fluoro-2-methylpropyl)sulfamoyl]-7,8-dihydro-6H-cyclopenta[g]isoquinolin-7-yl]isoquinoline-1-carboxamide]	100 to 2000 nM
CC(C)CNS(=O)(=O)N1Cc2cc3cnc(C4CC4)cc3c(S(=O)(=O)NCC(C)(C)F)c2C1 [Example 99, 7-cyclopropyl-9-N-(2-fluoro-2-methylpropyl)-2-N-(2-methylpropyl)-1,3-dihydropyrrolo[3,4-g]isoquinoline-2,9-disulfonamide]	100 to 2000 nM
CC(C)(F)CNS(=O)(=O)c1c2c(cc3cnc(C4CC4)cc13)C[C@H](n1cnc(C(N)=O)c1N)C2 [Example 90, 5-amino-1-[(7S)-3-cyclopropyl-5-[(2-fluoro-2-methylpropyl)sulfamoyl]-7,8-dihydro-6H-cyclopenta[g]isoquinolin-7-yl]imidazole-4-carboxamide]	100 to 2000 nM
CC(C)(F)CNS(=O)(=O)c1c2c(cc3cnc(C4CC4)cc13)CC(n1ccnc1NCC1CC1)C2 (stereo not drawn) [Example 58, 3-cyclopropyl-7-[2-(cyclopropylmethylamino)imidazol-1-yl]-N-(2-fluoro-2-methylpropyl)-7,8-dihydro-6H-cyclopenta[g]isoquinoline-5-sulfonamide]	100 to 2000 nM
Cn1nccc1C(=O)NC1Cc2cc3cnc(C4CC4)cc3c(S(=O)(=O)NCC(C)(C)F)c2C1 (stereo not drawn) [Example 104, N-[3-cyclopropyl-5-[(2-fluoro-2-methylpropyl)sulfamoyl]-7,8-dihydro-6H-cyclopenta[g]isoquinolin-7-yl]-2-methylpyrazole-3-carboxamide]	50 to 100 nM
CC(C)(F)CNS(=O)(=O)c1c2c(cc3cnc(C4CC4)cc13)CC(Nc1cncc3[nH]ncc13)C2 (stereo not drawn) [Example 83, 3-cyclopropyl-N-(2-fluoro-2-methyl-propyl)-7-(1H-pyrazolo[3,4-c]pyridin-4-ylamino)-7,8-dihydro-6H-cyclopenta[g]isoquinoline-5-sulfonamide, formate salt]	10 to 50 nM
CC(C)(F)CNS(=O)(=O)c1c2c(cc3cnc(C4CC4)cc13)CC(NC1=CC(=O)OC1)C2 (stereo not drawn) [Example 142, 3-cyclopropyl-N-(2-fluoro-2-methylpropyl)-7-[(5-oxo-2H-furan-3-yl)amino]-7,8-dihydro-6H-cyclopenta[g]isoquinoline-5-sulfonamide]	100 to 2000 nM
COC(=O)c1ccc(NC2Cc3cc4c(F)nc(C5CC5)cc4c(S(=O)(=O)NCC(C)(C)F)c3C2)cn1 (stereo not drawn) [Example 24, methyl 5-[[3-cyclopropyl-1-fluoro-5-[(2-fluoro-2-methyl-propyl)sulfamoyl]-7,8-dihydro-6H-cyclopenta[g]isoquinolin-7-yl]amino]pyridine-2-carboxylate]	10 to 50 nM
COc1nc(C2CC2)cc2c(S(=O)(=O)NCC(C)(C)F)c3c(cc12)CC(Nc1ccc(C2(O)COC2)nc1)C3 (stereo not drawn) [Example 26, 3-cyclopropyl-N-(2-fluoro-2-methylpropyl)-7-[[6-(3-hydroxyoxetan-3-yl)pyridin-3-yl]amino]-1-methoxy-7,8-dihydro-6H-cyclopenta[g]isoquinoline-5-sulfonamide]	100 to 2000 nM
CC1(C)CC1NS(=O)(=O)c1c2c(cc3cnc(C4CC4)cc13)CC(C(=O)Nc1cccnc1)C2 (stereo not drawn) [Example 81, 3-cyclopropyl-5-[(2,2-dimethylcyclopropyl)sulfamoyl]-N-pyridin-3-yl-7,8-dihydro-6H-cyclopenta[g]isoquinoline-7-carboxamide]	100 to 2000 nM
Cc1nnc(-c2ccc(N[C@@H]3Cc4cc5cnc(C6CC6)cc5c(S(=O)(=O)NCC(C)(C)F)c4C3)cc2)o1 [Example 70, (7R)-3-cyclopropyl-N-(2-fluoro-2-methylpropyl)-7-[4-(5-methyl-1,3,4-oxadiazol-2-yl)anilino]-7,8-dihydro-6H-cyclopenta[g]isoquinoline-5-sulfonamide]	10 to 50 nM
CC(C)(F)CNS(=O)(=O)c1c2c(cc3cnc(C4CC4)cc13)C[C@@H](Nc1cncc3nn(CCO)cc13)C2 [Example 106, (7R)-3-cyclopropyl-N-(2-fluoro-2-methylpropyl)-7-[[2-(2-hydroxyethyl)pyrazolo[3,4-c]pyridin-4-yl]amino]-7,8-dihydro-6H-cyclopenta[g]isoquinoline-5-sulfonamide]	10 to 50 nM
CC(C)CNS(=O)(=O)c1c2c(cc3cnc(C4CC4)cc13)CC(Nc1nncn1CC1CC1)C2 (stereo not drawn) [Example 5, 3-cyclopropyl-7-[[4-(cyclopropylmethyl)-1,2,4-triazol-3-yl]amino]-N-(2-methylpropyl)-7,8-dihydro-6H-cyclopenta[g]isoquinoline-5-sulfonamide]	10 to 50 nM
